The test system of this assay is BDF1 mice, P388/ADR leukemia ip, median survival T/C. The assay is described as follows: NCI In Vivo Anticancer Drug Screen. Data for tumor model P388 Leukemia resistant to Adriamycin; NSC 123127, Developed at Scr 06 and 41 (intraperitoneal) in B6D2F1 (BDF1) mice. Conditions: endpoint: median survival time, higher = longer survival. How it is done: The antitumor activity of compounds was measured in mice bearing transplantable tumors. Survival or tumor size were measured and the results are expressed as the measurement made in the treated group (T) divided by the measurement made in the vehicle treated control group (C). The tumor model used in this assay is P388 Leukemia resistant to Adriamycin; NSC 123127, Developed at Scr 06 and 41 (intraperitoneal) in B6D2F1 (BDF1) mice

Setting [1] is: dose: 13.33 mg/kg/injection, schedule: Q04DX003 (ip), vehicle: saline.

Each structure is given as a SMILES string. Several values for one entry are separate records, joined by “and”; a condition that tells them apart may be missing. Equal entries are not always repeated. Toxic doses and inconclusive results are not listed.

As for `S=c1nc[nH]c2nc[nH]c12`, the T/C is 100 % of control (dose: 43.2 mg/kg/injection, schedule: Q01DX009 (ip), vehicle: alkali diluted with saline) and 105 % of control (dose: 72.0 mg/kg/injection, schedule: Q01DX009 (ip), vehicle: alkali diluted with saline).
For the compound `CSCS(=O)C[C@H](CO)NC(=O)/C=C/c1c(C)[nH]c(=O)[nH]c1=O` (stereo partly drawn), the T/C reads like this: (dose: 0.72 mg/kg/injection, schedule: Q04DX003 (ip), vehicle: saline) 88 % of control; (dose: 0.86 mg/kg/injection, schedule: Q04DX003 (ip), vehicle: saline) 100 % of control; (dose: 1.2 mg/kg/injection, schedule: Q04DX003 (ip), vehicle: saline) 86 % of control; (dose: 1.44 mg/kg/injection, schedule: Q04DX003 (ip), vehicle: saline) 114 % of control; (dose: 2.0 mg/kg/injection, schedule: Q04DX003 (ip), vehicle: saline) 86 % of control; (dose: 2.4 mg/kg/injection, schedule: Q04DX003 (ip), vehicle: saline) 119 % of control. The T/C is 99 % of control (dose: 173.0 micrograms/kg/injection, schedule: Q01DX009 (ip), vehicle: saline); 99 % of control (dose: 288.0 micrograms/kg/injection, schedule: Q01DX009 (ip), vehicle: saline); 95 % of control (dose: 480.0 micrograms/kg/injection, schedule: Q01DX009 (ip), vehicle: saline).
Consider `CCC1(O)CC2CN(CCc3c([nH]c4ccccc34)C(C(=O)OC)(c3cc4c(cc3OC)N(C)C3C(O)(C(N)=O)C(O)C5(CC)C=CCN6CCC43C65)C2)C1` (stereo not drawn) (tested in a mixture with another compound), for which the T/C is 107 % of control (dose: 0.65 mg/kg/injection, schedule: Q04DX003 (ip), vehicle: saline); 111 % of control (dose: 1.08 mg/kg/injection, schedule: Q04DX003 (ip), vehicle: saline); 101 % of control (dose: 1.8 mg/kg/injection, schedule: Q04DX003 (ip), vehicle: saline); 86 % of control (dose: 3.0 mg/kg/injection, schedule: Q04DX003 (ip), vehicle: saline).
Turning to `O=NN(CCCl)C(=O)NCCCl`, the T/C is 169 % of control (dose: 13.0 mg/kg/injection, schedule: Q01DX001 (ip), vehicle: saline + alcohol); 499 % of control (dose: 21.6 mg/kg/injection, schedule: Q01DX001 (ip), vehicle: saline + alcohol); 499 % of control (dose: 36.0 mg/kg/injection, schedule: Q01DX001 (ip), vehicle: saline + alcohol).
In the case of `CCCCC(=O)OCC(=O)[C@]1(O)Cc2c(O)c3c(c(O)c2[C@@H](OC2CC(NC(=O)C(F)(F)F)C(O)C(C)O2)C1)C(=O)c1c(OC)cccc1C3=O` (stereo partly drawn), the T/C by setting is: (dose: 13.0 mg/kg/injection, schedule: Q01DX004 (ip), vehicle: saline with Tween-80) 105 % of control; (dose: 15.1 mg/kg/injection, schedule: Q04DX003 (ip), vehicle: other) 120 % of control; (dose: 21.0 mg/kg/injection, schedule: Q01DX004 (ip), vehicle: saline with Tween-80) 113 % of control; (dose: 25.2 mg/kg/injection, schedule: Q04DX003 (ip), vehicle: other) 119 % of control; (dose: 42.0 mg/kg/injection, schedule: Q04DX003 (ip), vehicle: other) 122 % of control; (dose: 70.0 mg/kg/injection, schedule: Q04DX003 (ip), vehicle: other) 155 % of control.
For `NC(C/[N+]([O-])=N/O)C(=O)O` (stereo not drawn), the T/C was 159 % of control (dose: 288.0 mg/kg/injection, schedule: Q04DX003 (ip), vehicle: sodium bicarbonate) and 154 % of control (dose: 480.0 mg/kg/injection, schedule: Q04DX003 (ip), vehicle: sodium bicarbonate).
Take `CCC1(O)CC(OC2CC(N(C)C)C(OC3CC4OC5CC(=O)C(C)OC5OC4C(C)O3)C(C)O2)c2c(cc3c(c2O)C(=O)c2c(O)ccc(O)c2C3=O)C1C(=O)OC` (stereo not drawn): the T/C was 112 % of control (dose: 0.86 mg/kg/injection, schedule: Q04DX003 (ip), vehicle: water); 115 % of control (dose: 1.3 mg/kg/injection, schedule: Q04DX003 (ip), vehicle: water); 120 % of control (dose: 1.44 mg/kg/injection, schedule: Q04DX003 (ip), vehicle: water); 124 % of control (dose: 2.4 mg/kg/injection, schedule: Q04DX003 (ip), vehicle: water).
For the compound `Nc1ncn(C2OC(CO)C(O)C2O)c(=O)n1` (stereo not drawn), the T/C (dose: 6.48 mg/kg/injection, schedule: Q04DX003 (ip), vehicle: saline) was 210 % of control; the T/C (dose: 10.8 mg/kg/injection, schedule: Q04DX003 (ip), vehicle: saline) was 191 % of control; the T/C (dose: 18.0 mg/kg/injection, schedule: Q04DX003 (ip), vehicle: saline) is 184 % of control; the T/C (dose: 30.0 mg/kg/injection, schedule: Q04DX003 (ip), vehicle: saline) was 87 % of control.
Consider `COC(=O)[C@@]12OC[C@]34[C@H]([C@@H](O)[C@@H]1O)[C@@]1(C)CC(=O)C(O)=C(C)[C@@H]1C[C@H]3OC(=O)[C@H](OC(=O)/C=C(\C)C(C)C)[C@@H]24`, for which the T/C (dose: 0.65 mg/kg/injection, schedule: Q04DX003 (ip), vehicle: saline + alcohol) was 113 % of control; the T/C (dose: 1.08 mg/kg/injection, schedule: Q04DX003 (ip), vehicle: saline + alcohol) is 93 % of control and 97 % of control; the T/C (dose: 1.8 mg/kg/injection, schedule: Q04DX003 (ip), vehicle: saline + alcohol) is 86 % of control and 90 % of control.
For the compound `Cc1c(N)nc([C@H](CC(N)=O)NC[C@H](N)C(N)=O)nc1C(=O)N[C@H](C(=O)N[C@H](C)[C@@H](O)[C@H](C)C(=O)N[C@H](C(=O)NCCc1nc(-c2nc(C(=O)NCCC[S+](C)C)cs2)cs1)[C@@H](C)O)C(OC1OC(CO)C(O)C(O)C1OC1OC(CO)C(O)C(OC(N)=O)C1O)c1cnc[nH]1` (stereo partly drawn), the T/C reads like this: (dose: 2.88 mg/kg/injection, schedule: Q01DX009 (ip), vehicle: saline) 105 % of control; (dose: 4.8 mg/kg/injection, schedule: Q01DX009 (ip), vehicle: saline) 107 % of control; (dose: 6.5 mg/kg/injection, schedule: Q01DX009 (ip), vehicle: saline) 110 % of control; (dose: 8.0 mg/kg/injection, schedule: Q01DX009 (ip), vehicle: saline) 105 % of control; (dose: 10.8 mg/kg/injection, schedule: Q01DX009 (ip), vehicle: saline) 93 % of control; (dose: 13.33 mg/kg/injection, schedule: Q01DX009 (ip), vehicle: saline) 103 % of control. The T/C runs as follows: under setting [1], 103 % of control; (dose: 18.0 mg/kg/injection, schedule: Q01DX009 (ip), vehicle: saline) 95 % of control; (dose: 22.22 mg/kg/injection, schedule: Q04DX003 (ip), vehicle: saline) 110 % of control; (dose: 30.0 mg/kg/injection, schedule: Q01DX009 (ip), vehicle: saline) 90 % of control; (dose: 37.0 mg/kg/injection, schedule: Q04DX003 (ip), vehicle: saline) 98 % of control.
For `COc1cccc2c1C(=O)c1c(O)c3c(c(O)c1C2=O)C[C@@](O)(C(C)=O)C[C@@H]3OC1CC(N)C(O)C(C)O1` (stereo partly drawn), the T/C reads like this: (dose: 1.73 mg/kg/injection, schedule: Q04DX003 (ip), vehicle: water) 122 % of control; (dose: 2.88 mg/kg/injection, schedule: Q04DX003 (ip), vehicle: water) 114 % of control; (dose: 4.8 mg/kg/injection, schedule: Q04DX003 (ip), vehicle: water) 121 % of control; (dose: 8.0 mg/kg/injection, schedule: Q04DX003 (ip), vehicle: water) 104 % of control and 107 % of control.
With `CC[C@H]1CN2CCc3cc(OC)c(OC)cc3[C@@H]2C[C@@H]1C[C@@H]1c2cc(OC)c(OC)cc2CCN1CCN(CCCl)CCCl`, the T/C (dose: 4.3 mg/kg/injection, schedule: Q04DX003 (ip), vehicle: saline with Tween-80) is 119 % of control and the T/C (dose: 7.2 mg/kg/injection, schedule: Q04DX003 (ip), vehicle: saline with Tween-80) is 119 % of control.
As to `CO[C@H]1C[C@](C)(O)Cc2cc3c(c(O)c21)C(=O)c1c(O)cc2c(c1C3=O)O[C@@H]1O[C@@]2(C)[C@H](O)[C@@H](N(C)C)[C@@H]1O`, the T/C was 112 % of control (dose: 18.0 mg/kg/injection, schedule: Q04DX003 (ip), vehicle: lactate); 116 % of control (dose: 30.0 mg/kg/injection, schedule: Q04DX003 (ip), vehicle: lactate); 94 % of control (dose: 50.0 mg/kg/injection, schedule: Q04DX003 (ip), vehicle: lactate).
In the case of `COc1cc([C@@H]2c3cc4c(cc3[C@@H](OC3OC5CO[C@@H](c6cccs6)OC5C(O)C3O)[C@H]3COC(=O)[C@H]23)OCO4)cc(OC)c1O` (stereo partly drawn), the T/C under setting [1] is 123 % of control.

(Values after PubChem BioAssay AID182 (DTP/NCI, 2004).)
